One test deals with AGS. Description: Cytotoxicity against human AGS cells after 24 hrs by calcein uptake assay. Type of test: functional, cell-based.
The subject of test [1] is Jurkat. Description: Cell cycle arrest in human Jurkat cells assessed as accumulation at G1/S phase at 10 ug/mL after 18 hrs […]. In kind it is functional, cell-based.
The subject of the next test is A549. Description: Cytotoxicity against human A549 cells after 24 hrs by calcein uptake assay. Type of test: functional, cell-based.
The test system of test [2] is Jurkat. Description: Induction of apoptosis in human Jurkat cells assessed as increase in hypodiploid cells at 10 ug/mL after 18 hrs by TUNEL method. Type of test: functional.
A further test concerns T47D. Description: Cytotoxicity against human T47D cells after 24 hrs by calcein uptake assay. In kind it is functional, cell-based.

≈ marks a conversion by molar mass, not a printed value. Calls of active or inactive are those of the source. The rule behind the calls is not given here.

The text below walks through data of ChEMBL document CHEMBL1143024, “Clavaminols A-F, novel cytotoxic 2-amino-3-alkanols from the ascidian Clavelina phlegraea” (Bioorg Med Chem, 2007).

For the molecule `CCCCCCCCC[C@H](O)[C@@H](C)NC(C)=O`, the outcome in the test on AGS was inactive.
In general, IC50 refers to the midpoint of a concentration-inhibition curve. On to `CCCCCCCCC[C@H](O)[C@@H](C)N` [CLAVAMINOL A], for which the outcome in the test with Jurkat [1], in the test with A549 and with T47D was Active. Also, in the test with Jurkat [2], the Activity is 44.6%. Further, the IC50 with AGS is 5 µg/mL (≈ 24.8 µM).
As for `CCCCCCCCC[C@H](OC(C)=O)[C@@H](C)N`, the result with AGS was inactive.
